Patent US7479561B2, “4-(2,4-dichloro-5-methoxyphenyl)amino-6-methoxy-7-{[5-substituted-amino)methyl]-3-furyl}-3-quinolinecarbonitriles as kinase inhibitors” (Wyeth, priority 2004, dated 2009)
“And” between values parts separate entries of the source, which are not always exact repeats. Equal entries are not always repeated. Where two headings read alike, the source gives them in different places.

Experiments:
[1] = molecular target: T1, Recombinant human Src enzyme (Homo sapiens, UniProt P12931); experiment: Src Kinase Assay (LANCE FRET); type: biochemical
T1 construct: purchased PanVera P3044
T1 sequence (P12931 whole entry): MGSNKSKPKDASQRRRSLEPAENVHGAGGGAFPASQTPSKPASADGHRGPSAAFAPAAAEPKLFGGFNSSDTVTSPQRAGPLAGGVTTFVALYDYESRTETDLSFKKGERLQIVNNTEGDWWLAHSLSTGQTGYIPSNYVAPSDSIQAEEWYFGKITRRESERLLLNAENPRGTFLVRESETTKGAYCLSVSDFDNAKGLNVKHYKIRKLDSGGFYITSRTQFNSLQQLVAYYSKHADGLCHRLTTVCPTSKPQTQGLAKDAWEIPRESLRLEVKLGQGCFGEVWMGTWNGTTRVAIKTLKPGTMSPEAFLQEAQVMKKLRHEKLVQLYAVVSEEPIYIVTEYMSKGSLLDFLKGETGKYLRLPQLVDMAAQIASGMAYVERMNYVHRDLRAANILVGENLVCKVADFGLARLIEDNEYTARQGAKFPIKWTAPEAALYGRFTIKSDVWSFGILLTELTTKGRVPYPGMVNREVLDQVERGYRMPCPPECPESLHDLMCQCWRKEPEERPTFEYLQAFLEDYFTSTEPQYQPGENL
Method: Recombinant human Src enzyme was obtained from PanVera (P3044). […] Homogeneous fluorescence resonance energy transfer kinase assays were performed using the europium/APC detection format (LANCE, Perkin Elmer). Src enzyme (10 ng) was mixed with biotinylated peptide (final concentration 2 μM), 50 mM Hepes (pH 7.5), 10 mM MgCl2, 20 ug/ml BSA, 0.001% Brij-35 (Sigma), 100 μM ATP, 1% DMSO. The kinase reaction was incubated for 70 min at 37° C. The reaction was stopped with EDTA at a final concentration of 30 mM EDTA/25 mM Hepes (pH 7.5)/10 μg/ml BSA. The mixture was combined with Eu-labeled anti-phosphotyrosine antibody PT66 (Perkin Elmer, AD0068) and Streptavidin Surelight-APC (Perkin Elmer, CR130-100) in 50 mM Hepes (pH 7.5)/20 μg/ml BSA, and incubated for 30 min according to manufacturer's specifications. […] Multiple entries for a given compound indicate that it was tested multiple times.

[2] = molecular target: Rat2 fibroblasts stably transformed with v-Src/Hu c-Src fusion gene (Homo sapiens, UniProt P12931, cells depend on it, form not given); experiment: Anchorage Independent Src-transformed Fibroblast Proliferation Assay; type: cell-based, rat
Chain of Rat2 fibroblasts stably transformed with v-Src/Hu c-Src fusion gene (P12931 whole entry, stated change not applied, the tested form may be a part): as the sequence (P12931 whole entry) above
Excerpt: Rat2 fibroblasts stably transformed with a plasmid containing a CMV promotor controlled v-Src/Hu c-Src fusion gene in which the catalytic domain of human c-Src was inserted in place of the v-Src catalytic domain in the v-Src gene are used for the measurement of src dependent suspension growth.

Wild type c-Abl = molecular target: T2, Wild type c-Abl (Homo sapiens, UniProt P00519); experiment: Abl Kinase Assay (LANCE FRET); type: biochemical; conditions: 100 μM ATP; read-out: c-Abl enzyme IC50
T2 construct: purchased Panvera P3049
T2 sequence (P00519 whole entry): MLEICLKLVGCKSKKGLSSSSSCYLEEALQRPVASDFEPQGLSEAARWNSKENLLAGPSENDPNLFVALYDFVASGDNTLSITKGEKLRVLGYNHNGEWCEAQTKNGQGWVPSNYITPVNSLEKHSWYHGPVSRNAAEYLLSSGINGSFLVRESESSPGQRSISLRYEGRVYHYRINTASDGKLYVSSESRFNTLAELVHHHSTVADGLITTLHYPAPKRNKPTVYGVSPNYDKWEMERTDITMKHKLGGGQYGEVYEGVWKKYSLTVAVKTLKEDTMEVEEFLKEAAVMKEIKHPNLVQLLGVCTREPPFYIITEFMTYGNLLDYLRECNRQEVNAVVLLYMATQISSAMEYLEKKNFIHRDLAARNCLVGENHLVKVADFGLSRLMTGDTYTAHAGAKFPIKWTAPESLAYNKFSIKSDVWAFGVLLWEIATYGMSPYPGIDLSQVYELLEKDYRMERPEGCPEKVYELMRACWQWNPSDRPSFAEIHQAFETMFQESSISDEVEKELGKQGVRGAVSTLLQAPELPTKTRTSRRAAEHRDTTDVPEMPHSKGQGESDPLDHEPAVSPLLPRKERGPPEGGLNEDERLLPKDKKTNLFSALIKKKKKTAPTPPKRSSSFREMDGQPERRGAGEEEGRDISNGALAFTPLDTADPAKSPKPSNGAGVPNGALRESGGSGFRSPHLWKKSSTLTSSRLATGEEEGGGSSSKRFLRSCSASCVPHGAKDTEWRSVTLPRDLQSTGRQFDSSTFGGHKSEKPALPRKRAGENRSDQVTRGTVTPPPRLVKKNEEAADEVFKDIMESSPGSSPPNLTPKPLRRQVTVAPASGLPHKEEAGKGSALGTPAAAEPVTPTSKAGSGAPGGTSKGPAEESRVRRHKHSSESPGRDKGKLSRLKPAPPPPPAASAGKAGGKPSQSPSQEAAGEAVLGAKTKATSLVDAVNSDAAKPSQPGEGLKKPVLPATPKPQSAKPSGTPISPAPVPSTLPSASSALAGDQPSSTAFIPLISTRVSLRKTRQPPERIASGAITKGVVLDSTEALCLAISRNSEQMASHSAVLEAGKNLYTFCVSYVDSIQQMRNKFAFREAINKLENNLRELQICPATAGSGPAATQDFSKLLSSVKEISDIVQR
Method: Wild type c-Abl was purchased from Panvera (P3049). Biotinylated peptide for the Abl kinase assay was obtained from Synpep (Biotin-NH-[…]-COOH). Homogeneous fluorescence resonance energy transfer kinase assays were performed using the europium/APC detection format (LANCE, Perkin Elmer). Abl enzyme (2.5 ng c-Abl) was mixed with biotinylated peptide (final concentration 2 μM), 50 mM Hepes (pH 7.5), 10 mM MgCl2, 20 ug/ml BSA, and 0.001% Brij-35 (Sigma). Compound was added with a final DMSO concentration of 1%, and incubated for ten minutes at 27° C. The kinase reaction was initiated by addition of ATP to a final concentration of 100 μM, and incubated for 30 minutes at 27° C. The reaction was stopped with EDTA at a final concentration of 30 mM EDTA/25 mM Hepes (pH 7.5)/10 μg/ml BSA. The mixture was combined with Eu-labeled phosphotyrosine antibody PT66 (Perkin Elmer, AD0068) and Streptavidin Surelight-APC (Perkin Elmer, CR130-100) in 50 mM Hepes (pH 7.5)/20 μg/ml BSA, and incubated for 30 minutes according to manufacturer's specifications. The reaction was monitored on a Wallac Victor with excitation at 340 nm and emission at 665 nm. Data was analyzed with the LSW data analysis plug-in for Excel (Microsoft).

K562 Cells = experiment: K562 cell assay; type: cell-based; conditions: Homo sapiens
Method: (§1) The cell assays were performed as noted in Cancer Research 63, 375-381 (2003).

KU812 Cells = experiment: KU812 cell assay; type: cell-based; conditions: Homo sapiens
Method: as §1

HT29 cells = experiment: HT29 Xenograft Assay; type: in vivo; conditions: 100 mg/kg oral gavage once a day for 14 days; at day 14; female nude mice
Method: All animal studies were conducted under an approved Institutional Animal Care and Use Committee protocol. HT29 cells were suspended to 50 million cells/ml and 0.2 ml of the cell suspension was injected into 6-7 weeks old female nude mice (Charles River, Wilmington, Mass.). […] At day 14 the T/C (growth of tumors in treated animals/growth of tumors in control animals) was 0.53.

[3] = molecular target: T3, Rat2 fibroblasts stably transformed with v-Src/Hu Lck fusion gene (Homo sapiens, UniProt P06239, cells depend on it, form not given); experiment: Anchorage Independent Lck-transformed Fibroblast Proliferation Assay; type: cell-based, rat; conditions: suspension growth, MTS on Day 5; multiple entries = tested multiple times; read-out: Lck cells IC50
T3 construct: fused on or other part: v-Src of Rous sarcoma virus outside the catalytic domain (N-terminal unique/SH3/SH2 region and C-terminal tail); candidates are Schmidt-Ruppin A (P00524) and Prague C (P00526)
T3 sequence (P06239 whole entry, change not shown, the tested form may be a part): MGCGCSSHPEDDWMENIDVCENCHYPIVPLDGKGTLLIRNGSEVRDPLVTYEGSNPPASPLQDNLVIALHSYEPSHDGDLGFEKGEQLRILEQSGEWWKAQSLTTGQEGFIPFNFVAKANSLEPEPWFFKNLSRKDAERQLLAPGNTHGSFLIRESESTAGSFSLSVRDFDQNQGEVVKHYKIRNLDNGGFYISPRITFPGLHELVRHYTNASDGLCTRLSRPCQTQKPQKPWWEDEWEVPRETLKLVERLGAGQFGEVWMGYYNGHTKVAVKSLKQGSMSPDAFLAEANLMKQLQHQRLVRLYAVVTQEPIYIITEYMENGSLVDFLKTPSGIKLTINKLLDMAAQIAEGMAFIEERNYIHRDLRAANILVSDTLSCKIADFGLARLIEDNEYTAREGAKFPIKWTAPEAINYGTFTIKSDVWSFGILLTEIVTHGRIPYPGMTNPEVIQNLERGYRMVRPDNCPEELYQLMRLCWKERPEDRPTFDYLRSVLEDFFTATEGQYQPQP
Excerpt: Rat2 fibroblasts stably transformed with a plasmid containing a CMV promotor controlled v-Src/Hu Lck fusion gene in which the catalytic domain of human Lck was inserted in place of the v-Src catalytic domain in the v-Src gene are used for the measurement of src dependent suspension growth.

[4] = 100 μM ATP, multiple entries = tested multiple times, read-out: Src enzyme IC50
[5] = single value, read-out: Src Enzyme IC50
[6] = single value, read-out: Src Cell IC50
[7] = suspension growth, MTS on Day 5, multiple entries = tested multiple times, read-out: Src cells IC50

COc1cc(Nc2c(C#N)cnc3cc(-c4coc(CN5CCN(C)CC5)c4)c(OC)cc23)c(Cl)cc1Cl [Example 1]
IC50 [1, 4]: 1 nM and 0.6 nM and 0.7 nM | IC50 [1, 5]: 0.8 nM | GI50 [2, 6]: 15 nM | GI50 [2, 7]: 16 nM | IC50 (Wild type c-Abl): 0.4 nM and 0.27 nM and 0.25 nM | IC50 (K562 Cells): 5.6 nM | IC50 (KU812 Cells): 6 nM | T/C (growth of tumors in treated animals/growth of tumors in control animals) (HT29 cells): 0.53 | melting point: 179 to 181 °C

COc1cc(Nc2c(C#N)cnc3cc(-c4coc(CN(C)C)c4)c(OC)cc23)c(Cl)cc1Cl [Example 2, 4-[(2,4-Dichloro-5-methoxyphenyl)amino]-6-methoxy-7-{5-[(dimethylamino)methyl]-3-furyl}-3-quinolinecarbonitrile]
GI50 [3]: 11 nM | melting point: 133 to 138 °C

COc1cc(Nc2c(C#N)cnc3cc(-c4coc(CN5CCOCC5)c4)c(OC)cc23)c(Cl)cc1Cl [Example 3, 4-[(2,4-Dichloro-5-methoxyphenyl)amino]-6-methoxy-7-[5-(morpholin-4-ylmethyl)-3-furyl]-3-quinolinecarbonitrile]
melting point: 164 to 166 °C

COc1cc(Nc2c(C#N)cnc3cc(-c4coc(CN5CCN(c6ccccc6)CC5)c4)c(OC)cc23)c(Cl)cc1Cl [Example 4, 4-[(2,4-Dichloro-5-methoxyphenyl)amino]-6-methoxy-7-{5-[(4-phenylpiperazin-1-yl)methyl]-3-furyl}-3-quinolinecarbonitrile]
GI50 [3]: 353 nM and 447 nM | melting point: 201 to 203 °C

COc1ccc(N2CCN(Cc3cc(-c4cc5ncc(C#N)c(Nc6cc(OC)c(Cl)cc6Cl)c5cc4OC)co3)CC2)c(OC)c1 [Example 5, 4-[(2,4-Dichloro-5-methoxyphenyl)amino]-6-methoxy-7-(5-{[4-(2,4-dimethoxyphenyl)piperazin-1-yl]methyl}-3-furyl)-3-quinolinecarbonitrile]
IC50 [1, 4]: 3.5 nM and 3.1 nM | GI50 [2, 7]: 19 nM and 17 nM | GI50 [3]: 246 nM and 203 nM and 239 nM | melting point: 223 to 225 °C

CCN(CC)CCCN1CCN(Cc2cc(-c3cc4ncc(C#N)c(Nc5cc(OC)c(Cl)cc5Cl)c4cc3OC)co2)CC1 [Example 33, 4-[(2,4-dichloro-5-methoxyphenyl)amino]-7-[5-({4-[3-(diethylamino)propyl]piperazin-1-yl}methyl)-3-furyl]-6-methoxyquinoline-3-carbonitrile]
IC50 [1, 4]: 2 nM

COc1cc(Nc2c(C#N)cnc3cc(-c4coc(CN5CCN(Cc6ccncc6)CC5)c4)c(OC)cc23)c(Cl)cc1Cl [Example 34, 4-[(2,4-dichloro-5-methoxyphenyl)amino]-6-methoxy-7-(5-{[4-(pyridin-4-ylmethyl)piperazin-1-yl]methyl}-3-furyl)quinoline-3-carbonitrile]
IC50 [1, 4]: 2.5 nM and 3 nM

COc1cc(Nc2c(C#N)cnc3cc(-c4coc(CN5CCN(c6c(C)cccc6C)CC5)c4)c(OC)cc23)c(Cl)cc1Cl [Example 35, 4-[(2,4-dichloro-5-methoxyphenyl)amino]-7-(5-{[4-(2,6-dimethylphenyl)piperazin-1-yl]methyl}-3-furyl)-6-methoxyquinoline-3-carbonitrile]
IC50 [1, 4]: 3.2 nM and 5.6 nM

c1ccsc1 [thiophene, reference compound]
IC50 [1, 5]: 3.7 nM | GI50 [2, 6]: 94 nM
